Measurements reported in publication PMC3621575 (ACS Chemical Biology, 2012).

Assays:
CRK7 = conditions: primary chronic lymphocytic leukemia cells; cited from earlier work
CDK9 = conditions: primary chronic lymphocytic leukemia cells; cited from earlier work
[1] = tested on: human kinome in primary chronic lymphocytic leukemia cells; conditions: cited from earlier work
PCSTAIRE2 = conditions: primary chronic lymphocytic leukemia cells; cited from earlier work
T. brucei CRK1 = molecular target: T1, T. brucei CRK1 (Trypanosoma brucei brucei, UniProt P38973); test: Kinobead profiling, T. brucei lysate, CRK1; assay type: binding; conditions: T. brucei cell lysate
T1 sequence (P38973 1-301): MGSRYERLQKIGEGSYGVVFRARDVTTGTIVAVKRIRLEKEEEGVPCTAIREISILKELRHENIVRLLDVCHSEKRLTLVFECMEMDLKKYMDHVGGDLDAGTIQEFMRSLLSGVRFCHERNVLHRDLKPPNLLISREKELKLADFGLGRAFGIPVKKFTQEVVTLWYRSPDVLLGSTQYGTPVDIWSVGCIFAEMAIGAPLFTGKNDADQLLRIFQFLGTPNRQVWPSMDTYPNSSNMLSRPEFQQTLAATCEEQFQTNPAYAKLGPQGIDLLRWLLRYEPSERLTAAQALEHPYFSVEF

For CC(C)(C)c1cnc(CSc2cnc(NC(=O)C3CCNCC3)s2)o1 [BMS-387032], the “kinobead IC50, CRK7” value (CRK7) is given as “submicromolar”, the “kinobead IC50, CDK9” value (CDK9) is given as “submicromolar” and the “observed CDKs inhibited” value [1] is given as “all of the seven”. For the same compound, the “kinobead IC50, PCSTAIRE2” value (PCSTAIRE2) was “submicromolar” and the “kinobead inhibition of CRK1” value (T. brucei CRK1) was “no inhibition”.
